Source: ChEMBL document CHEMBL4483862, “Open-source discovery of chemical leads for next-generation chemoprotective antimalarials” (2018)

Tested on: Plasmodium berghei
Experiment: Luciferase/luciferin-expressing antifolate-resistant parasites were used to infect a culture of HepG2 cells that were pre-incubated with compounds. Infected hepatocytes emit light due to the luciferase reaction. Assay results are presented as the percent inhibition of light emission compared to control. […]
Assay type: functional
Details: sporozoite; for IC90: read-out: LUCIFERASE INFECTION ASSAY - IC90

| Compound | IC90 | other results |
| --- | --- | --- |
| O=C(NCc1ccco1)/C(=C/c1cccc(C(F)(F)F)c1)c1nc2ccccc2[nH]1 | 7.5 µM | IC50 (FFLUC_HILL_SLOPE 10.6, FFLUC_R_SQUARED 0.24, HEPG2TOX_HILL_SLOPE 4.32, HEPG2TOX_R_SQUARED 0.946, PBLUC_HILL_SLOPE 6.31, PBLUC_R_SQUARED 0.466, read-out: LUCIFERASE INFECTION ASSAY - IC50): 5.3 µM |
| O=C(NCC(c1ccco1)N1CCCC1)c1ccc(Cl)c(S(=O)(=O)N2CCc3ccccc32)c1 (configuration not stated) | > 10 µM | IC50 (FFLUC_HILL_SLOPE 10.9, FFLUC_R_SQUARED 0.158, HEPG2TOX_HILL_SLOPE 3.24, HEPG2TOX_R_SQUARED 0.613, PBLUC_HILL_SLOPE 5.35, PBLUC_R_SQUARED 0.563, read-out: LUCIFERASE INFECTION ASSAY - IC50): 7.08 µM |
| CC(=O)NC1=C(N(C)C2CCS(=O)(=O)C2)C(=O)c2ccccc2C1=O (configuration not stated) | > 10 µM | IC50 (FFLUC_HILL_SLOPE 10.5, FFLUC_R_SQUARED 0.371, PBLUC_HILL_SLOPE 1.29, PBLUC_R_SQUARED 0.482, read-out: LUCIFERASE INFECTION ASSAY - IC50): 5.96 µM |
| CCNC(=O)Cc1ccc(NC(=O)c2csc(Br)c2)cc1 | > 10 µM | IC50 (FFLUC_HILL_SLOPE 10.6, FFLUC_R_SQUARED 0.0524, read-out: LUCIFERASE INFECTION ASSAY - IC50): > 10 µM |
| N#Cc1ccc(S(=O)(=O)Nc2cc(C(F)(F)F)cc(C(F)(F)F)c2)c(Cl)c1 | 5.49 µM | IC50 (FFLUC_HILL_SLOPE 10.5, FFLUC_R_SQUARED 0.0508, HEPG2TOX_HILL_SLOPE 1.91, HEPG2TOX_R_SQUARED 0.922, PBLUC_HILL_SLOPE 2.28, PBLUC_R_SQUARED 0.661, read-out: LUCIFERASE INFECTION ASSAY - IC50): 2.09 µM |
| O=C1C=CC(=O)N1c1cc(Cl)ccc1Cl | > 13.6 µM | IC50 (FFLUC_HILL_SLOPE 10.4, FFLUC_R_SQUARED 0.533, read-out: LUCIFERASE INFECTION ASSAY - IC50): > 13.6 µM |
| O=S(=O)(Nc1cc(C(F)(F)F)cc(C(F)(F)F)c1)c1cc(C(F)(F)F)cc(C(F)(F)F)c1 | 4.66 µM | IC50 (FFLUC_HILL_SLOPE 10.6, FFLUC_R_SQUARED 0.544, PBLUC_HILL_SLOPE 1.62, PBLUC_R_SQUARED 0.523, read-out: LUCIFERASE INFECTION ASSAY - IC50): 1.2 µM |
| O=C(Nc1nc2ccccn2c1C(=O)NC1CCCCC1)c1ccccc1Cl | 8.12 µM | IC50 (FFLUC_HILL_SLOPE 10.6, FFLUC_R_SQUARED 0.389, HEPG2TOX_HILL_SLOPE 7.19, HEPG2TOX_R_SQUARED 0.725, PBLUC_HILL_SLOPE 14.8, PBLUC_R_SQUARED 0.156, read-out: LUCIFERASE INFECTION ASSAY - IC50): 7 µM |
| C=CCn1c(-c2ccccc2)cs/c1=N\Nc1ccc([N+](=O)[O-])cc1 | > 10 µM | IC50 (FFLUC_HILL_SLOPE 10.5, FFLUC_R_SQUARED 0.467, read-out: LUCIFERASE INFECTION ASSAY - IC50): > 10 µM |
| CC(Sc1nc2ncccn2n1)C(=O)N1c2ccccc2CC1C (configuration not stated) | > 10 µM | IC50 (FFLUC_HILL_SLOPE 10.4, FFLUC_R_SQUARED 0.228, read-out: LUCIFERASE INFECTION ASSAY - IC50): > 10 µM |
| COc1ccc(C(=O)Nc2cc(Cl)ccc2N2CCCCC2)cc1S(=O)(=O)N(C)OC | > 10 µM | IC50 (FFLUC_HILL_SLOPE 10.9, FFLUC_R_SQUARED 0.3, PBLUC_HILL_SLOPE 12.4, PBLUC_R_SQUARED 0.0122, read-out: LUCIFERASE INFECTION ASSAY - IC50): > 10 µM |
| CC1C(=O)N(CC(O)COCc2ccccc2Cl)C(=O)N1c1ccccc1 (configuration not stated) | > 10 µM | IC50 (FFLUC_HILL_SLOPE 10.9, FFLUC_R_SQUARED 0.0106, read-out: LUCIFERASE INFECTION ASSAY - IC50): > 10 µM |
| CCc1nn2c(=O)c(CC)c(C)[nH]c2c1-c1ccc(Cl)cc1 | > 10.4 µM | IC50 (FFLUC_HILL_SLOPE 10.5, FFLUC_R_SQUARED 0.352, PBLUC_HILL_SLOPE 13.5, PBLUC_R_SQUARED 0.435, read-out: LUCIFERASE INFECTION ASSAY - IC50): 8.92 µM |
| CC(C)(C)c1nnc2sc(SCC(=O)NC(c3ccccc3)c3ccccc3)nn2c1=O | > 10 µM | IC50 (FFLUC_HILL_SLOPE 10.4, FFLUC_R_SQUARED 0.278, PBLUC_HILL_SLOPE 1.88, PBLUC_R_SQUARED 0.683, read-out: LUCIFERASE INFECTION ASSAY - IC50): 4.26 µM |
| O=C(Nc1ccccc1C(=O)OCC(=O)N1c2ccccc2Sc2ccccc21)c1ccco1 | > 10 µM | IC50 (FFLUC_HILL_SLOPE 10.6, FFLUC_R_SQUARED 0.388, PBLUC_HILL_SLOPE 2.08, PBLUC_R_SQUARED 0.607, read-out: LUCIFERASE INFECTION ASSAY - IC50): 7.58 µM |
| Cn1c(NCc2ccccc2)nc2cnc(Nc3ccc(OC(F)(F)F)cc3)cc21 | 3.61 µM | IC50 (FFLUC_HILL_SLOPE 10.9, FFLUC_R_SQUARED 0.015, PBLUC_HILL_SLOPE 2.54, PBLUC_R_SQUARED 0.635, read-out: LUCIFERASE INFECTION ASSAY - IC50): 1.52 µM |

| Compound | IC90 | other results |
| --- | --- | --- |
| CCCCNC(=O)c1c(NC(=O)c2ccc(F)cc2F)nc2ccc(C)cn12 | 3.01 µM | IC50 (FFLUC_HILL_SLOPE 10.6, FFLUC_R_SQUARED 0.36, HEPG2TOX_HILL_SLOPE 2.09, HEPG2TOX_R_SQUARED 0.949, PBLUC_HILL_SLOPE 14.8, PBLUC_R_SQUARED 0.468, read-out: LUCIFERASE INFECTION ASSAY - IC50): 2.6 µM |
| CC(C)(C)c1cc(C(=O)Nc2cccc(Cl)c2)n(Cc2ccc(Cl)cc2Cl)n1 | > 7.56 µM | IC50 (FFLUC_HILL_SLOPE 10.5, FFLUC_R_SQUARED 0.365, read-out: LUCIFERASE INFECTION ASSAY - IC50): > 7.56 µM |
| O=C(CSCCS(=O)(=O)c1ccc(Cl)cc1)Nc1cc(C(F)(F)F)cc(C(F)(F)F)c1 | > 6.52 µM | IC50 (FFLUC_HILL_SLOPE 10.6, FFLUC_R_SQUARED 0.485, read-out: LUCIFERASE INFECTION ASSAY - IC50): > 6.52 µM |
| O=c1c2ccccc2[nH]c2ccc(Oc3ncnc4ccsc34)cc12 | 0.558 µM | IC50 (FFLUC_HILL_SLOPE 10.4, FFLUC_R_SQUARED 0.538, PBLUC_HILL_SLOPE 5.72, PBLUC_R_SQUARED 0.733, read-out: LUCIFERASE INFECTION ASSAY - IC50): 0.38 µM |
| O=C(Nc1ncc(Cc2cccc(Cl)c2Cl)s1)c1ccc(-n2cncn2)nc1 | > 10 µM | IC50 (FFLUC_HILL_SLOPE 10.4, FFLUC_R_SQUARED 0.281, HEPG2TOX_HILL_SLOPE 2.29, HEPG2TOX_R_SQUARED 0.935, PBLUC_HILL_SLOPE 1.7, PBLUC_R_SQUARED 0.542, read-out: LUCIFERASE INFECTION ASSAY - IC50): 3.51 µM |
| CCCNC(=O)c1c(NC(=O)c2cc(F)ccc2F)nc2ccc(C)cn12 | 1.18 µM | IC50 (FFLUC_HILL_SLOPE 10.5, FFLUC_R_SQUARED 0.751, HEPG2TOX_HILL_SLOPE 1.41, HEPG2TOX_R_SQUARED 0.982, PBLUC_HILL_SLOPE 15, PBLUC_R_SQUARED 0.726, read-out: LUCIFERASE INFECTION ASSAY - IC50): 1.02 µM |
| CCOC(=O)c1sc(SCc2ccccc2)c2c1CC(c1ccccc1)CC2=O (configuration not stated) | > 7.81 µM | IC50 (FFLUC_HILL_SLOPE 10.5, FFLUC_R_SQUARED 0.686, PBLUC_HILL_SLOPE 0.804, PBLUC_R_SQUARED 0.242, read-out: LUCIFERASE INFECTION ASSAY - IC50): > 7.81 µM |
| COc1cccc(OC)c1C(=O)Nc1cc2c(c([N+](=O)[O-])c1C)C(C)(C)CC2(C)C | 6.98 µM | IC50 (FFLUC_HILL_SLOPE 10.9, FFLUC_R_SQUARED 0.163, HEPG2TOX_HILL_SLOPE 1.05, HEPG2TOX_R_SQUARED 0.731, PBLUC_HILL_SLOPE 1.82, PBLUC_R_SQUARED 0.597, read-out: LUCIFERASE INFECTION ASSAY - IC50): 2.09 µM |
| FC(F)(F)c1ccccc1N/N=C/c1ccc(OCc2ccccc2)c(OCc2ccccc2)c1 | > 10 µM | IC50 (FFLUC_HILL_SLOPE 10.4, FFLUC_R_SQUARED 0.371, read-out: LUCIFERASE INFECTION ASSAY - IC50): > 10 µM |
| Cc1ccc(C(=O)C(c2ccc(C)cc2)N2C(=O)NC(C)(c3ccccc3)C2=O)cc1 (configuration not stated) | > 10 µM | IC50 (FFLUC_HILL_SLOPE 10.4, FFLUC_R_SQUARED 0.468, read-out: LUCIFERASE INFECTION ASSAY - IC50): > 10 µM |
| O=C1C(=O)N(CCc2ccccc2)c2c1cccc2C(F)(F)F | 5.96 µM | IC50 (FFLUC_HILL_SLOPE 10.6, FFLUC_R_SQUARED 0.162, HEPG2TOX_HILL_SLOPE 9.24, HEPG2TOX_R_SQUARED 0.771, PBLUC_HILL_SLOPE 5.11, PBLUC_R_SQUARED 0.647, read-out: LUCIFERASE INFECTION ASSAY - IC50): 3.88 µM |
| COCCOc1ccc(C(F)(F)F)cc1NC(=O)COC(=O)c1ccc2[nH]c3c(c2c1)CCCC3 | > 10 µM | IC50 (FFLUC_HILL_SLOPE 10.4, FFLUC_R_SQUARED 0.848, HEPG2TOX_HILL_SLOPE 1.66, HEPG2TOX_R_SQUARED 0.868, PBLUC_HILL_SLOPE 2.48, PBLUC_R_SQUARED 0.755, read-out: LUCIFERASE INFECTION ASSAY - IC50): 4.17 µM |
| c1ccc(CSc2ncc(-c3nnnn3-c3ccccc3)c(-c3ccccc3)n2)cc1 | > 7.81 µM | IC50 (FFLUC_HILL_SLOPE 10.9, FFLUC_R_SQUARED 0.438, read-out: LUCIFERASE INFECTION ASSAY - IC50): > 7.81 µM |
| c1ccc(C2(c3ccccc3)CC2(c2ccccc2)c2ccccc2)cc1 | 8.97 µM | IC50 (FFLUC_HILL_SLOPE 10.4, FFLUC_R_SQUARED 0.239, PBLUC_HILL_SLOPE 23.3, PBLUC_R_SQUARED 0.151, read-out: LUCIFERASE INFECTION ASSAY - IC50): 8.16 µM |
| CC1CCc2[nH]c3ccc(C(=O)Nc4ccccc4N4CCCCC4)cc3c2C1 (configuration not stated) | 0.818 µM | IC50 (FFLUC_HILL_SLOPE 10.4, FFLUC_R_SQUARED 0.246, PBLUC_HILL_SLOPE 2.51, PBLUC_R_SQUARED 0.903, read-out: LUCIFERASE INFECTION ASSAY - IC50): 0.341 µM |
